{"source": "paper PMC3492248", "about": "“Src Kinase Regulation in Progressively Invasive Cancer” (PLoS ONE, 2012)", "experiment": "Stability of Src peptide substrate 1 in prostate cell lysates", "assay_type": "in vitro ADME, human", "details": "for % Remaining Parent / remaining at 1 h: M-PER lysis buffer, no ATP/Mg2+, 1 h; for remaining at 1 h: read-out: % Remaining Parent", "method": "Peptides commonly suffer protease-catalyzed degradation in cells as well as in cell lysates. Consequently, prior to examining Src kinase-catalyzed phosphorylation of peptide 1 with lysates, we monitored the stability of the peptide as a function of time. Cells were lysed using Pierce’s M-PER mammalian lysis buffer and, in the absence of ATP and Mg^2+ (i.e. no observable kinase activity), the lysate was added to peptide 1. Only approximately 10% of the peptide is degraded after 1 h (Table S1). Since the phosphorylation rate is measured within 10 min of incubation (Fig. S1), the peptide is sufficiently stable for our needs.\nCapillary electrophoresis was performed on a ProteomeLab PA800 system equipped with a laser-induced fluorescence (LIF) detector (Beckman Coulter). The LIF was excited using the 488 nm argon laser. A fused-silica capillary (30/20 cm total/effective length, 50/360 µm inner/outer diameter) was used for separation (Polymicro Technologies). Prior to installation, capillaries were pretreated with 0.1 M NaOH for 12 h, distilled water for 1 h, 0.1 M HCl for 6 h and water again for 12 h. The samples were hydrodynamically injected and separated at 25°C at a constant voltage of 12 kV. The running buffer was 100 mM Borate/100 mM SDS buffer at pH 7.7. Before each run, the capillary was rinsed with 0.1 M NaOH, distilled water, and then the running buffer for 2 min under 20 psi pressure. Data was collected and analyzed using 32 Karat Software (Version 8.0, Beckman Coulter).\nAll cell lines were acquired from ATCC and grown in a humidified incubator at 37°C with 5% CO2. PZ-HPV-7, RWPE1, WPE1-NA22, WPE1-NB14, WPE1-NB11 and WPE1-NB26 cell lines were cultured in Keratinocyte Serum Free Medium (K-SFM) supplied with 0.05 mg/mL bovine pituitary extract (BPE) and 5 ng/mL epidermal growth factor (EGF) (all provided as a kit from Invitrogen), and 1% penicillin/streptomycin (P/S; Invitrogen). CWR22Rv1 cells were cultured in RPMI-1640 medium (Invitrogen) supplemented with 10% heat-inactivated fetal bovine serum (HI-FBS, Invitrogen) and 1% P/S. DU145 cells were cultured in Eagle’s Minimum Essential Medium (EMEM, ATCC) supplemented with 10% HI-FBS and 1% P/S. PC3 cells were cultured in F-12K medium (ATCC) supplemented with 10% HI-FBS and 1% P/S. Cell lysates were prepared as follows: confluent cells were first trypsinized and collected into 15 mL tubes in the presence of FBS-containing buffer or medium and then washed (3X) with ice cold DPBS buffer. The cells were lysed using M-PER mammalian protein extraction reagent mixed with 5/100 (v/v) Halt protease and phosphatase inhibitor cocktail EDTA-free (Thermo Fisher Scientific) for 10 min at 4°C. Cell debris was removed by centrifuging samples at 14,000 x g for 10 min at 4°C. The total protein concentrations were determined using Dc Protein assay (Bio-Rad).\nCell Line % Remaining Parent", "note": "Like-named read-outs stand apart in the source and are kept apart here. Where a SMILES comes first, the peptide text is derived from it. [ ]: non-standard residue; d: D form. The star is where a group is joined. 5FAM = O=C1OC2(c3ccc(O)cc3Oc3cc(O)ccc32)c2ccc(C(=O)*)cc21; Orn = NCCC[C@H](N)C(=O)O"}
{"smiles": "CC[C@H](C)[C@H](NC(=O)[C@H](CCC(=O)O)NC(=O)[C@H](CCC(=O)O)NC(=O)[C@H](CCC(=O)O)NC(=O)[C@H](CCCNC(C)=O)NC(=O)c1ccc2c(c1)C(=O)OC21c2ccc(O)cc2Oc2cc(O)ccc21)C(=O)N[C@@H](Cc1ccc(O)cc1)C(=O)NCC(=O)N[C@@H](CCC(=O)O)C(=O)N[C@@H](Cc1ccccc1)C(=O)N[C@@H](CCCNC(C)=O)C(N)=O", "note": "[peptide 1] (5FAM-[Orn](Ac)EEEIYGEF[Orn](Ac)-NH2)", "values": [{"measurement": "% Remaining Parent", "setting": "DU145 cell lysate", "value": "92.9 ± 0.5", "unit": "%"}, {"measurement": "% Remaining Parent", "setting": "PC3 cell lysate", "value": "89.2 ± 2.2", "unit": "%"}, {"measurement": "% Remaining Parent", "setting": "WPE1-NA22 cell lysate", "value": "92.4 ± 0.8", "unit": "%"}, {"measurement": "% Remaining Parent", "setting": "WPE1-NB14 cell lysate", "value": "91.4 ± 1.2", "unit": "%"}, {"measurement": "% Remaining Parent", "setting": "WPE1-NB26 cell lysate", "value": "91.0 ± 1.5", "unit": "%"}, {"measurement": "metabolised at 1 h", "setting": "human, prostate cell lysates, prostate cell lysate (M-PER mammalian lysis buffer), absence of ATP and Mg2+, after 1 h, read-out: peptide degraded", "value": "~10", "unit": "%"}, {"measurement": "remaining at 1 h", "setting": "human, PZ-HPV-7 cell lysate", "value": "92.4 ± 0.2", "unit": "%"}, {"measurement": "remaining at 1 h", "setting": "human, RWPE1 cell lysate", "value": "91 ± 0.6", "unit": "%"}, {"measurement": "remaining at 1 h", "setting": "human, WPE1-NB11 cell lysate", "value": "89.8 ± 1.5", "unit": "%"}]}
